Reference: patent US5236955A, “Anti-fungal agent” (Washington University, priority 1992, dated 1993)

How the values were obtained:
[1] = tested on: C. neoformans; assay: Viability of C. neoformans (viable cells relative to EtOH control culture); format: cell-based, Cryptococcus neoformans; conditions: for fungicidal / fungistatic effect on C. neoformans: screening assay; for log reduction at 300 µM: relative to 0.1% EtOH control, read-out: decrease in viable cells (converted); for attenuation of fungicidal activity on shortening by one methylene: versus corresponding oxatetradecanoic acid, 300 μM
Method: (§1) Panel A, survey of the effects of several oxatetradecanoic acids on the growth of C. neoformans. A culture of C. neoformans was grown at 30° C. in SAB media to midlog phase (A600 ~0.5). A single dose of fatty acid was then added to subcultures (final concentration=300 μM). EtOH(0.1%) was used as a negative control. Amphotericin B (AmB) was added (final concentraton=55 μM) as a positive control. Aliquots were withdrawn from the subcultures 0, 0.5, 2, 4, 7, 21, and 24 h after these additions and then absorbance at 600 nm was measured. All assays were done in duplicate or triplicate. A representative test is shown. Panel B, survey of the effects of oxatetradecanoic acids, dioxatetradecanoic acids and oxatridecanoic acids on the viability of C. neoformans. Fatty acid analog was added to the cultures as in Panel A. Aliquots were withdrawn 0.5, 2, 4, 7 or 8, and 24 h later and plated on SAB-agar at various dilutions to determine the number of viable organisms/ml culture. All assays were done in duplicate. Data from a representative test are expressed as the ratio of viable cells in treated cultures relative to a control culture that received 0.1% EtOH. A positive control culture received a single dose of amphotericin B (55 μM); Panel C, dose-dependent reduction in the viability of C. neoformans after addition of 4-oxatetradecanoic acid (O4) to cultures during log-phase growth at 30° C. in SAB. A single dose of the analog was given at T=0 h in the amount indicated and aliquots of the culture were withdrawn at various times to determine the number of viable cells. All assays were done in triplicate. A representative test is shown.
(§2) Saccharomyces cerevisiae strain YM2061 (MATa ura3-52 his3Δ200 ade2-101 lys2-801 met LEU2::pRY181 can1; Flick and Johnston, Mol. Cell. Biol. 10, 4757-4769 (1990), Candida albicans strain B311 (obtained from the American Type Tissue Culture, Rockville, Md.), or Cryptococcus neoformans strain L210425 (a clinical isolate that is part of the permanent culture collection of the Mycology Laboratory, Barnes Hospital, St. Louis, Mo.) were grown overnight at 30 C. The S. cerevisiae strain was incubated in YPD medium (1% bacto-yeast extract, Gibco, Long Island, N.Y.), 2% bacto-peptone (Gibco), 2% dextrose). The C. albicans and C. neoformans strains were grown in Sabouraud's media (SAB; 2% (w/v) dextrose, 1% bacto-peptone). The following morning the cultures were diluted into fresh medium to the desired density at 600 nm (early log phase), and subsequently incubated in a rotary shaker at 30° C. until an A600 =0.5 (mid log phase) was achieved. The culture was then divided into 10 ml aliquots. A single 10 μl aliquot of a stock solution of fatty acid analog (prepared in various concentrations using absolute ethanol) was added to the culture so that the final concentration of the compound was 100-500 μM (T=0). Ten microliters of ethanol alone was added to one 10 ml culture which served as the negative control. Amphotericin B (AmB; in the form of Fungizone, Squibb) was added (final concentration=55 μM) to another culture which served as the positive control. At T=0 and 0.5-24 h after addition of fatty acid analog to the subcultures, an aliquot was removed for determining the density of the subculture at 600 nm. Cell viability was determined at each of these time points by (i) serially diluting the aliquot in 0.15M NaCl and counting cell number in a hemocytometer and (ii) plating 2-3 of the dilutions in triplicate onto plates of SAB/agar (C. albicans and C. neoformans) or YPD/agar (S. cerevisiae). These plates were subsequently incubated at 30° C. for 24-48 hr to allow for the growth of colonies. The data were expressed as the ratio of viable cells/ml in the fatty acid analog treated subculture to the number of viable cells/ml in the negative (ethanol) control culture.

[2] = biological target: T1, S. cerevisiae NMT (Saccharomyces cerevisiae, UniProt P14743); assay: In vitro discontinuous NMT assay; format: biochemical; conditions: 40 μM fatty acid, HIV-1 Pr55gag octapeptide
T1 construct: made in house; host or cells: E. coli
T1 sequence (P14743 whole entry): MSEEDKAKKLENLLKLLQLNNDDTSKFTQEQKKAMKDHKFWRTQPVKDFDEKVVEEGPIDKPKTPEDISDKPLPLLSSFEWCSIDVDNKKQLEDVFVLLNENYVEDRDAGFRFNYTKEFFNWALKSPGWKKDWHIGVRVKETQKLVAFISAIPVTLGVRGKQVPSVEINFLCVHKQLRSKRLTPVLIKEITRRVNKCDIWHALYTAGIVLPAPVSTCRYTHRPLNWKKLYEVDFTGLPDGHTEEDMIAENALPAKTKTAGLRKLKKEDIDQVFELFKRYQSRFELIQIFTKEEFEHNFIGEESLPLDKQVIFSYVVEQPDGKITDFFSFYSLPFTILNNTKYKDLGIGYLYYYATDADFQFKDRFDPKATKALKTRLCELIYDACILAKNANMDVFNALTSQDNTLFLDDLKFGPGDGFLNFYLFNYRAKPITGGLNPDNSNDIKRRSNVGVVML
Method: (§3) Details of the single point, discontinuous, in vitro NMT assay are described in Examples, below. A tritiated octapeptide derived from residues 2-9 of […] HIV-I Pr55^gag (GARA[^3 H]SVLS-NH2) was used in all assays. The amount of analogpeptide produced is expressed as a percentage of myristoylpeptide generated in a control incubation. All assays were performed in triplicate. The mean ±1 standard deviation is shown. Under the assay conditions employed, the amount of myristoylpeptide generated by purified E. coli-derived S. cerevisiae NMT ranged from 5×10^5 to 2×10^6 pmol/mg enzyme/min while the amount of myristolypeptide produced by purified E. coli-derived, C. albicans NMT ranged from 4×10^5 to 1.5×10^6 pmol/mg enzyme/mni.
(§4) In vitro discontinuous NMT assay--This assay was carried out by conventional procedures as described by Duronio et al., Methods: A Companion to Methods in Enzymol. 1, 253-263 (1990); Kishore et al., J. Biol. Chem. 266, 8835-8853 (1991). Briefly, a single point assay was performed by first converting myristic acid or a fatty acid analog (final concentration=40 μM) to its CoA thioester using Pseudomonas acylCoA synthetase (EC 6.2.1.3, Sigma Chemical Co.). Following a 25 min incubation at 30° C., purified E. coli derived S. cerevisiae or C. albicans NMT [Rudnick et al., Ibid. 265, 13370-13378 (1990); Wiegand et al., J. Biol. Chem. 267, 8591-8598 (1992)], final concentration=0.1 μg/ml, was added to the reaction mixture together with a tritiated peptide substrate derived from residues 2-9 of the HIV-1 Pr55^gag (Gly-Ala-Arg-[^3 H]Ala-Ser-Val-Leu-Ser-NH2) [Kishore et al., supra (1991); specific activity=1.2 Ci/mmol; final concentration=23 μM]. After an additional 10 min incubation at 30° C., the enzymatically generated, radiolabeled acylpeptide was purified by reverse phase HPLC and quantitated using an in-line scintillation counter [Kishore et al., supra, (1991)]. The amount of analogpeptide formed was expressed as a percentage of the amount of myristoylpeptide formed in a parallel reference assay. All assays were performed in duplicate or triplicate.
(§5) In vitro studies of purified S. cerevisiae and C. albicans NMT reveal differences in the kinetic properties of oxatetradecanoic and oxatridecanoic acid analogs--To begin to understand the mechanism which underlies the fungicidal activities of some but not all of the oxygen containing fatty acid analogs, the relative activities of the sixteen oxatri-, oxatetradecanoic acids and dioxatetradecanoic acids were examined in an in vitro assay. The two step assay measures NMT-dependent transfer of the acyl chain from an enzymatically generated acylCoA to a radiolabeled peptide substrate. […]

[3] = biological target: T2, C. albicans NMT (Candida albicans, UniProt P30418); assay: In vitro discontinuous NMT assay; format: biochemical; conditions: 40 μM fatty acid, HIV-1 Pr55gag octapeptide
T2 construct: made in house; host or cells: E. coli
T2 sequence (P30418 whole entry): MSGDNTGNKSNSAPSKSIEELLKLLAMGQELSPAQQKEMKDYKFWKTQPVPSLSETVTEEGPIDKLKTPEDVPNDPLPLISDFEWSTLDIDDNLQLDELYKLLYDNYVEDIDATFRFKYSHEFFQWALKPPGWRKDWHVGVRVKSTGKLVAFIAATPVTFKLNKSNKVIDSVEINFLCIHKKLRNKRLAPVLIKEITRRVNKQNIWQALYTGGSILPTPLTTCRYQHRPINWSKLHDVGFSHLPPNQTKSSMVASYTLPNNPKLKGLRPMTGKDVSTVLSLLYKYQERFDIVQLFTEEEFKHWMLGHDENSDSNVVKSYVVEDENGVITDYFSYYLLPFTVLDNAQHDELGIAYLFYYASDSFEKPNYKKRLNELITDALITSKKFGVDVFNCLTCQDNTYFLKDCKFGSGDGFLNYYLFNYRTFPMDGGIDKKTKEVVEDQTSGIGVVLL
Method: as §3, §4, §5

[4] = tested on: C. neoformans; assay: Growth of C. neoformans cultures (absorbance at 600 nm); format: cell-based, Cryptococcus neoformans
Method: as §1
as §2, with “Amphotericin B (AmB; in the form of Fungizone, Squibb) was added (final concentration=55 μM) to another culture which served as the positive control. At T=0 and 0.5-24 h after addition of fatty acid analog to the subcultures, an aliquot was removed for determining the density of the subculture at 600 nm.” left out, “These plates were subsequently incubated at 30° C. for 24-48 hr to allow for the growth of colonies.” left out, “culture. […]” for “culture.”

[5] = tested on: C. albicans; assay: Viability of C. albicans; format: cell-based; conditions: Candida albicans
Method: (§6) Oxatetradecanoic acids were added (final concentraton=25-500 μM) as a single dose to log phase cultures of C. alibcans grown in SAB at 30° C. (Panels A and B) and to log phase cultures of S. cerevisiae grown in YPD at 30° C. (Panels C and D). The results were compared to the number of viable organisms present in cultures treated with 0.1% EtOH alone. […] A single does of alphotericin B (final concentration=55 μM) was added to parallel cultures which served as positive controls. Assays were done in duplicate. Representative tests are shown.
as §2

[6] = tested on: S. cerevisiae; assay: Viability of S. cerevisiae; format: cell-based; conditions: Saccharomyces cerevisiae
Method: as §6, §2

[7] = Cryptococcus neoformans, 300 μM single dose

Compound: CCCCOCCCCCCCCC(=O)O [O10]
- fungicidal / fungistatic effect on C. neoformans ([1]; 300 μM single dose): no measurable effect on the growth

Compound: CCCCCCCOCCCCCC(=O)O [O7]
- fungicidal / fungistatic effect on C. neoformans ([1]; 300 μM single dose): no measurable effect on the growth

Compound: CCCCCCCCCCCOCC(=O)SCCNC(=O)CCNC(=O)[C@H](O)C(C)(C)COP(=O)(O)OP(=O)(O)OC[C@H]1O[C@@H](n2cnc3c(N)ncnc32)[C@H](O)[C@@H]1OP(=O)(O)O [3-oxatetradecanoylCoA]
- activity of analogCoA relative to myristoylCoA [2]: equivalent to myristate
- activity of analogCoA relative to myristoylCoA [3]: equivalent to myristate

Compound: COCCCCCCCCOCCC(=O)O [4,13 dioxatetradecanoic acid, 4,13-Dioxatetradecanoic acid]
- fungicidal / fungistatic effect on C. neoformans ([1]; 300 μM single dose): did not convert O13 to an active analog

Compound: CCCCCCCCCCOCCC(=O)SCCNC(=O)CCNC(=O)[C@H](O)C(C)(C)COP(=O)(O)OP(=O)(O)OC[C@H]1O[C@@H](n2cnc3c(N)ncnc32)[C@H](O)[C@@H]1OP(=O)(O)O [4-oxatetradecanoylCoA]
- activity of analogCoA relative to myristoylCoA [2]: -3 fold
- activity of analogCoA relative to myristoylCoA [3]: -3 fold

Compound: C[C@@H]1[C@H](O)[C@@H](C)/C=C/C=C/C=C/C=C/C=C/C=C/C=C/[C@H](O[C@@H]2O[C@H](C)[C@@H](O)[C@H](N)[C@@H]2O)C[C@@H]2O[C@](O)(C[C@@H](O)C[C@@H](O)[C@H](O)CC[C@@H](O)C[C@@H](O)CC(=O)O[C@H]1C)C[C@H](O)[C@H]2C(=O)O [Amphotericin B, reference compound]
- log reduction at 55 µM ([1]; Cryptococcus neoformans, read-out: reduction in viable cell number): 6
- effect on growth of C. neoformans, as determined by optical density ([4]; 55 μM, positive control): growth arrest

Compound: CCCCCCOCCCCCCC(=O)O [O8]
- fungicidal / fungistatic effect on C. neoformans ([1]; 300 μM single dose): no measurable effect on the growth

Compound: CCCOCCCCCCCCCC(=O)O [O11, 11-Oxatetradecanoic acid]
- fungicidal / fungistatic effect on C. neoformans ([1]; 300 μM single dose): no measurable effect on the growth
- effect on growth of C. neoformans, as determined by optical density ([4]; single 300 μM dose, exponential phase, 30° C., SAB, up to 24 h): virtually no effect on growth

Compound: CCCCCCCCCOCCC(=O)O [4-oxatridecanoic acid, 4-Oxatridecanoic acid]
- time needed to produce the decrease in viable cells ([1]; 300 μM single dose): 6 to 7 h
- log reduction at 300 µM [1, 7]: 3
- attenuation of fungicidal activity on shortening by one methylene [1]: 10 fold

Compound: CCCCCCCCCOCCCC(=O)O [O5, 5-oxatetradecanoic acid]
- log reduction at 300 µM ([5]; 300 μM, 2 hr after addition, read-out: reductions in the number of viable C. albicans): < 0.699
- log reduction at 500 µM ([5]; 500 μM, read-out: reduction in the number of viable organisms (C. albicans)): 1 to 2
- fungicidal / fungistatic effect on C. neoformans ([1]; 300 μM single dose): fungicidal
- log reduction at 300 µM [1, 7]: 3
- log reduction at 300 µM ([6]; 300 μM, 2 hr after addition, read-out: reductions in the number of viable S. cerevisiae): < 0.699
- log reduction at 500 µM ([6]; 500 μM, read-out: reduction in the number of viable organisms (S. cerevisiae)): 1 to 2

Compound: CCOCCCCCCCCCCC(=O)O [O12]
- fungicidal / fungistatic effect on C. neoformans ([1]; 300 μM single dose): no measurable effect on the growth

Compound: COCCCCCCCOCCCC(=O)O [5,13 dioxatetradecanoic acid, 5,13-Dioxatetradecanoic acid]
- fungicidal / fungistatic effect on C. neoformans ([1]; 300 μM single dose): did not convert O13 to an active analog

Compound: CCCCCCCCOCCCC(=O)O [5-oxatridecanoic acid, 5-Oxatridecanoic acid]
- fungicidal / fungistatic effect on C. neoformans ([1]; 300 μM single dose): not active
- attenuation of fungicidal activity on shortening by one methylene [1]: 10 fold
